The text below walks through data of ChEMBL document CHEMBL6127119 (J Med Chem, 2024).

As usually defined, the MIC is the lowest concentration that inhibits growth of the organism. A lower MIC goes with greater potency.

Molecules are shown by their SMILES. ≈ marks a conversion by molar mass, not a printed value.

Common to all, as to format: functional
Common to all, as to settings: time 16-24 hrs

Assay [1] has as its system Enterococcus faecium. The assay can be described thus: Antibacterial activity against vancomycin-resistant Enterococcus faecium harboring VanA phenotype incubated for 16 to 24 hrs by CLSI based broth microdilution method. Background: Broth dilution looks for growth in wells or tubes with falling amounts of substance.
Assay [2] deals with Acinetobacter baumannii. In words: Antibacterial activity against Carbapenem-resistant Acinetobacter baumannii clinical isolate incubated for 16 to 24 hrs by CLSI based broth microdilution method.
The test system of assay [3] is Staphylococcus aureus. In words: Antibacterial activity against vancomycin-intermediate Staphylococcus aureus incubated for 16 to 24 hrs by CLSI based broth microdilution method.
Assay [4] has as its system Pseudomonas aeruginosa. The assay can be described thus: Antibacterial activity against Pseudomonas aeruginosa PAO1 incubated for 16 to 24 hrs by CLSI based broth microdilution method.
For assay [5], the system named is Staphylococcus aureus. In words: Antibacterial activity against methicillin-susceptible Staphylococcus aureus incubated for 16 to 24 hrs by CLSI based broth microdilution method.
In assay [6] the test system is Enterococcus faecium. The assay can be described thus: Antibacterial activity against vancomycin-resistant Enterococcus faecium harboring VanB phenotype incubated for 16 to 24 hrs by CLSI based broth microdilution method.
For assay [7], the system named is Escherichia coli. In words: Antibacterial activity against Escherichia coli AB1157 incubated for 16 to 24 hrs by CLSI based broth microdilution method.
The test system of assay [8] is Enterococcus faecium. In words: Antibacterial activity against vancomycin-resistant Enterococcus faecium harboring VanM phenotype incubated for 16 to 24 hrs by CLSI based broth microdilution method.
Assay [9] concerns Klebsiella pneumoniae. In words: Antibacterial activity against Klebsiella pneumoniae clinical isolate incubated for 16 to 24 hrs by CLSI based broth microdilution method.

As to `Cc1ccc(-c2ccc(CNC(=O)[C@H]3NC(=O)[C@H]4NC(=O)[C@H](NC(=O)[C@@H]5NC(=O)[C@H](CC(N)=O)NC(=O)[C@H](NC(=O)[C@H](N)CC(C)C)[C@H](O)c6ccc(c(Cl)c6)Oc6cc5cc(c6O[C@@H]5O[C@H](CO)[C@@H](O)[C@H](O)[C@H]5O[C@H]5C[C@](C)(N)[C@H](O)[C@H](C)O5)Oc5ccc(cc5Cl)[C@H]4O)c4ccc(O)c(c4)-c4c(O)cc(O)cc43)cc2)cc1`, the MIC in assay [1] was 8 µg/mL (≈ 4.96 µM); in assay [2] it was > 128 µg/mL; in assay [3], 0.5 µg/mL (≈ 0.31 µM); in assay [4], > 128 µg/mL; in assay [5] it was 0.125 µg/mL (≈ 0.0774 µM); in assay [6], 2 µg/mL (≈ 1.24 µM). The MIC is 128 µg/mL (≈ 79.3 µM) in assay [7], 8 µg/mL (≈ 4.96 µM) in assay [8] and > 128 µg/mL in assay [9].

With `CC(=O)NC[C@H]1CN(c2ccc(N3CCOCC3)c(F)c2)C(=O)O1` [LINEZOLID], the minimal inhibitory concentration (MIC) in assay [1] is 1 µg/mL (≈ 2.96 µM); in assay [2], 128 µg/mL (≈ 379 µM); in [4] it was > 128 µg/mL; in assay [6], 2 µg/mL (≈ 5.93 µM); in [7], 128 µg/mL (≈ 379 µM); in assay [8], 2 µg/mL (≈ 5.93 µM). Also, the minimal inhibitory concentration (MIC) in [9] is > 128 µg/mL.

As to `CC(C)C[C@@H](N)C(=O)N[C@H]1C(=O)N[C@@H](CC(N)=O)C(=O)N[C@H]2C(=O)N[C@H]3C(=O)N[C@H](C(=O)N[C@H](C(=O)NCCOCCOCCN)c4cc(O)cc(O)c4-c4cc3ccc4O)[C@H](O)c3ccc(c(Cl)c3)Oc3cc2cc(c3O[C@@H]2O[C@H](CO)[C@@H](O)[C@H](O)[C@H]2O[C@H]2C[C@](C)(N)[C@H](O)[C@H](C)O2)Oc2ccc(cc2Cl)[C@H]1O`, the minimal inhibitory concentration (MIC) was 64 µg/mL (≈ 40.9 µM) in [1]; > 128 µg/mL in assay [2]; 4 µg/mL (≈ 2.56 µM) in assay [3]; > 128 µg/mL in assay [4]; 0.5 µg/mL (≈ 0.319 µM) in assay [5]; 64 µg/mL (≈ 40.9 µM) in [6]. Moreover, the results for the minimum inhibitory concentration (MIC) in assay [7], in [8] and in assay [9] were 64 µg/mL (≈ 40.9 µM), 64 µg/mL (≈ 40.9 µM) and > 128 µg/mL, respectively.

`CC(C)C[C@@H](N)C(=O)N[C@H]1C(=O)N[C@@H](CC(N)=O)C(=O)N[C@H]2C(=O)N[C@H]3C(=O)N[C@H](C(=O)N[C@H](C(=O)NCCN)c4cc(O)cc(O)c4-c4cc3ccc4O)[C@H](O)c3ccc(c(Cl)c3)Oc3cc2cc(c3O[C@@H]2O[C@H](CO)[C@@H](O)[C@H](O)[C@H]2O[C@H]2C[C@](C)(N)[C@H](O)[C@H](C)O2)Oc2ccc(cc2Cl)[C@H]1O`: the minimal inhibitory concentration (MIC) in assay [1] was 128 µg/mL (≈ 86.6 µM); in [2] it was 128 µg/mL (≈ 86.6 µM); in assay [3], 4 µg/mL (≈ 2.71 µM); in assay [4], > 128 µg/mL; in assay [5], 2 µg/mL (≈ 1.35 µM); in [6] it was 128 µg/mL (≈ 86.6 µM). For the same compound, the figures for the MIC in [7], in [8] and in assay [9] were 32 µg/mL (≈ 21.7 µM), 128 µg/mL (≈ 86.6 µM) and > 128 µg/mL, respectively.

Take `CC(C)C[C@@H](N)C(=O)N[C@H]1C(=O)N[C@@H](CC(N)=O)C(=O)N[C@H]2C(=O)N[C@H]3C(=O)N[C@H](C(=O)N[C@H](C(=O)O)c4cc(O)c(CNCCCCCCCCNC(=N)N)c(O)c4-c4cc3ccc4O)[C@H](O)c3ccc(c(Cl)c3)Oc3cc2cc(c3O[C@@H]2O[C@H](CO)[C@@H](O)[C@H](O)[C@H]2O[C@H]2C[C@](C)(N)[C@H](O)[C@H](C)O2)Oc2ccc(cc2Cl)[C@H]1O`: the minimal inhibitory concentration (MIC) turned out to be 64 µg/mL (≈ 39.2 µM) in assay [1]; 128 µg/mL (≈ 78.4 µM) in [2]; 4 µg/mL (≈ 2.45 µM) in [3]; 128 µg/mL (≈ 78.4 µM) in assay [4]; 1 µg/mL (≈ 0.612 µM) in assay [5]; 128 µg/mL (≈ 78.4 µM) in [6]. The MIC is 32 µg/mL (≈ 19.6 µM) in assay [7], 32 µg/mL (≈ 19.6 µM) in assay [8] and > 128 µg/mL in assay [9].

Consider `CC(=O)NCCCCNC(=O)[C@H]1NC(=O)[C@H]2NC(=O)[C@H](NC(=O)[C@@H]3NC(=O)[C@H](CC(N)=O)NC(=O)[C@H](NC(=O)[C@H](N)CC(C)C)[C@H](O)c4ccc(c(Cl)c4)Oc4cc3cc(c4O[C@@H]3O[C@H](CO)[C@@H](O)[C@H](O)[C@H]3O[C@H]3C[C@](C)(N)[C@H](O)[C@H](C)O3)Oc3ccc(cc3Cl)[C@H]2O)c2ccc(O)c(c2)-c2c(O)cc(O)cc21`, for which the minimum inhibitory concentration (MIC) in assay [1] is > 128 µg/mL; in assay [2], 128 µg/mL (≈ 82.7 µM); in [3], 8 µg/mL (≈ 5.17 µM); in assay [4] it was 128 µg/mL (≈ 82.7 µM); in [5], 4 µg/mL (≈ 2.58 µM); in assay [6], > 128 µg/mL. In addition, the MIC in assay [7] is 128 µg/mL (≈ 82.7 µM); in assay [8], 128 µg/mL (≈ 82.7 µM); in assay [9], > 128 µg/mL.

On to `CC(C)C[C@@H](N)C(=O)N[C@H]1C(=O)N[C@@H](CC(N)=O)C(=O)N[C@H]2C(=O)N[C@H]3C(=O)N[C@H](C(=O)N[C@H](C(=O)NCCCCCCN)c4cc(O)cc(O)c4-c4cc3ccc4O)[C@H](O)c3ccc(c(Cl)c3)Oc3cc2cc(c3O[C@@H]2O[C@H](CO)[C@@H](O)[C@H](O)[C@H]2O[C@H]2C[C@](C)(N)[C@H](O)[C@H](C)O2)Oc2ccc(cc2Cl)[C@H]1O`, for which the MIC was 64 µg/mL (≈ 41.7 µM) in assay [1]; > 128 µg/mL in assay [2]; 8 µg/mL (≈ 5.22 µM) in assay [3]; 128 µg/mL (≈ 83.5 µM) in assay [4]; 2 µg/mL (≈ 1.3 µM) in assay [5]; 64 µg/mL (≈ 41.7 µM) in assay [6]. Also, the minimal inhibitory concentration (MIC) in assay [7] was 32 µg/mL (≈ 20.9 µM); in [8], 64 µg/mL (≈ 41.7 µM); in assay [9] it was > 128 µg/mL.

As for `CC(C)C[C@@H](N)C(=O)N[C@H]1C(=O)N[C@@H](CC(N)=O)C(=O)N[C@H]2C(=O)N[C@H]3C(=O)N[C@H](C(=O)N[C@H](C(=O)NCCCCCCCCN)c4cc(O)cc(O)c4-c4cc3ccc4O)[C@H](O)c3ccc(c(Cl)c3)Oc3cc2cc(c3O[C@@H]2O[C@H](CO)[C@@H](O)[C@H](O)[C@H]2O[C@H]2C[C@](C)(N)[C@H](O)[C@H](C)O2)Oc2ccc(cc2Cl)[C@H]1O`, the MIC is 32 µg/mL (≈ 20.5 µM) in [1]; > 128 µg/mL in [2]; 4 µg/mL (≈ 2.56 µM) in [3]; 128 µg/mL (≈ 82 µM) in assay [4]; 1 µg/mL (≈ 0.64 µM) in [5]; 32 µg/mL (≈ 20.5 µM) in [6]. The minimal inhibitory concentration (MIC) in [7] is 32 µg/mL (≈ 20.5 µM); in assay [8], 32 µg/mL (≈ 20.5 µM); in assay [9] it was > 128 µg/mL.

For `CC(C)C[C@@H](N)C(=O)N[C@H]1C(=O)N[C@@H](CC(N)=O)C(=O)N[C@H]2C(=O)N[C@H]3C(=O)N[C@H](C(=O)N[C@H](C(=O)NCc4ccc(-c5cccc(CN)c5)cc4)c4cc(O)cc(O)c4-c4cc3ccc4O)[C@H](O)c3ccc(c(Cl)c3)Oc3cc2cc(c3O[C@@H]2O[C@H](CO)[C@@H](O)[C@H](O)[C@H]2O[C@H]2C[C@](C)(N)[C@H](O)[C@H](C)O2)Oc2ccc(cc2Cl)[C@H]1O`, the minimum inhibitory concentration (MIC) in assay [1] was 8 µg/mL (≈ 4.91 µM); in [2], > 128 µg/mL; in [3] it was 0.5 µg/mL (≈ 0.307 µM); in assay [4] it was 128 µg/mL (≈ 78.6 µM); in assay [5] it was 0.125 µg/mL (≈ 0.0767 µM); in assay [6] it was 8 µg/mL (≈ 4.91 µM). Besides, the MIC is 16 µg/mL (≈ 9.82 µM) in [7], 2 µg/mL (≈ 1.23 µM) in assay [8] and > 128 µg/mL in assay [9].

As for `CC(C)C[C@@H](N)C(=O)N[C@H]1C(=O)N[C@@H](CC(N)=O)C(=O)N[C@H]2C(=O)N[C@H]3C(=O)N[C@H](C(=O)N[C@H](C(=O)NCCCCCCNC(=N)N)c4cc(O)cc(O)c4-c4cc3ccc4O)[C@H](O)c3ccc(c(Cl)c3)Oc3cc2cc(c3O[C@@H]2O[C@H](CO)[C@@H](O)[C@H](O)[C@H]2O[C@H]2C[C@](C)(N)[C@H](O)[C@H](C)O2)Oc2ccc(cc2Cl)[C@H]1O`, the MIC in assay [1] was 32 µg/mL (≈ 20.3 µM); in [2], 128 µg/mL (≈ 81.2 µM); in assay [3], 2 µg/mL (≈ 1.27 µM); in assay [4], > 128 µg/mL; in assay [5], 0.5 µg/mL (≈ 0.317 µM); in assay [6], 16 µg/mL (≈ 10.2 µM). Besides, the MIC in assay [7] was 8 µg/mL (≈ 5.08 µM); in assay [8], 32 µg/mL (≈ 20.3 µM); in [9], > 128 µg/mL.
